Experimental data taken from patent publication US20230088528A1, “USE OF LIPID IN PREPARATION OF NUCLEIC ACID DELIVERY REAGENT AND RELATED PRODUCT THEREOF” (INSTITUTE OF BASIC MEDICAL SCIENCES CHINESE ACADEMY OF …, priority 2019, published 2023).

Assays:
[1] = Pharmacokinetic study of lipid-nucleic acid mixture, gavage group, relative amount of PGY-sRNA-26 delivered to organs over time; format: in vivo, C57BL/6 male mice; conditions: sampled at 3, 6, 9, 12, 24 hrs
Description: (§1) 1 nmol of small RNA (as shown in Table 2) was dissolved in 400 μl of DEPC-treated water in a glass tube, and 10 μl of a corresponding lipid stock solution was added, to give a system containing 100 μg of lipid. The system was well mixed, heated for 15 min in a water bath at 90° C., and then naturally cooled, to obtain a lipid-nucleic acid mixture of the lipid and small RNA.
(§2) The C57BL/6 male mice used in the experiment were purchased from Beijing Vital River Laboratory Animal Technology Co., Ltd., about 6 weeks old, and weighed 20-24 g. They were kept in an SPF animal room of the Animal Center of the Institute of Basic Medical Sciences, Chinese Academy of Medical Sciences. The mice were fasted for 12 hrs before gavage.
(§3) The lipid-nucleic acid mixture was prepared following the method as described in Example 2. The prepared lipid-nucleic acid mixture was orally administered or injected via the tail vein at a dose of 100 μg lipid:1 nmol single-stranded small RNA PGY-sRNA-26 per mouse. The oral dose was half that of the tail vein injection.
(§4) 1) Blank group: Mice (n=6) were given 500 μl of normal saline by gavage, and this group served as a blank control group;
2) Gavage group: Mice (n=15) were given 200 μl of the lipid-nucleic acid mixture prepared in step 2 by gavage.
(§5) At 3 hrs, 6 hrs, 9 hrs, 12 hrs and 24 hrs after administration in the gavage group and the intravenous injection group, 3 mice were taken and the RNA was extracted from each organ according to the method in Example 3.
(§6) The RNA extracted from each organ was reverse transcribed into cDNA according to the method in Example 3.
(§7) A quantitative PCR amplification reaction was performed according to the method in Example 3.
(§8) 3.5. The Relative Expression Level was Calculated by the 2-ΔCt Method.
(§9) FIGS. 46-49 respectively show the results of delivering single-stranded small RNA PGY-sRNA-26 into different target tissues at various time points by gavage using lipids 93, 94, 96, and 100. FIGS. 50-54 respectively show the results of delivering single-stranded small RNA PGY-sRNA-26 into different target tissues at various time points by injection via the tail vein using lipids 94, 96, 98, 100, and 101.

[2] = Pharmacokinetic study of lipid-nucleic acid mixture, tail vein injection group, relative amount of PGY-sRNA-26 delivered to organs over time; format: in vivo, C57BL/6 male mice; conditions: injection via the tail vein; sampled at 3, 6, 9, 12, 24 hrs
Description: as §1, §2, §3, §4
3) Intravenous injection group: Mice (n=15) were given 100 μl of the lipid-nucleic acid mixture prepared in step 2 by injection via the tail vein.
as §5, §6, §7, §8, §9

[3] = In vivo delivery of lipid-nucleic acid mixture (PGY-sRNA-26) by gavage, relative intake in blood and tissues by RT-qPCR; parameters: species or system C57BL/6 male mice; conditions: for oral delivery of sRNA single-chain nucleic acid into the blood, and lung, kidney, spleen, heart, and intestinal tissue of mice: 100 μg lipid:1 nmol PGY-sRNA-26 per mouse, 12 hrs after gavage, vs free intake group; for number of organs into which nucleic acid is significantly delivered: among the 6 organs in the experiments
Description: The concentration of a lipid solution in chloroform was 10 mg/ml (stock solution), and grouping was performed according to the lipid compound number.
as §1, §2
The lipid-nucleic acid mixture was prepared following the method as described in Example 2. The prepared lipid-nucleic acid mixture was orally administered at a dose of 100 μg lipid:1 nmol single-stranded small RNA PGY-sRNA-26 per mouse.
1) Blank group: Mice (n=4) were given 500 μl of normal saline by gavage, and this group served as a blank control group;
2) Free intake group: Mice (n=4) were given sRNA solution (1 nmol/animal, 500 μl) by direct gavage, and this group served as a negative control group;
3) Lipid treatment group: Mice (n=4) were given 500 μl of the lipid-nucleic acid mixture prepared in step 2 by gavage.
12 hrs after gavage in each group of mice, 500 μl of blood was taken from the eyeball, and 1.5 ml of Trizol Reagent LS (purchased from Invitrogen) was added and mixed well for lysis. The tissue sample was added with 3 ml of Trizol Reagent LS. and homogenized for full lysis, wherein the tissue sample included lung/kidney/spleen/heart/gut. 1 ml of blood or tissue lysate was taken and RNA was extracted according to the following steps.
The blood or tissue lysate was centrifuged at 4° C., and 12,000 rpm for 5 min, the pellet was discarded, and Trizol was transferred to a new centrifuge tube.
Chloroform was added in an amount of 200 μL chloroform/mL Trizol, shaken fully until uniform, and allowed to stand at room temperature for 5 min.
The sample was centrifuged at 4° C., and 12,000 rpm, for 15 min.
The upper aqueous phase was pipetted to another centrifuge tube, and isopropanol was added in an amount of 0.4 mL isopropanol/mL Trizol, mixed well, and allowed to stand at a low temperature for 10-20 min.
The sample was centrifuged at 4° C., and 12,000 rpm, for 15 min, the supernatant was discarded, and the RNA pellet was at the bottom of the tube.
1 mL of 75% ethanol was added, and the centrifuge tube was shaken gently, to suspend the pellet.
The sample was centrifuged at 4° C., and 12,000 rpm, for 10 min, the supernatant was discarded, 1 mL of 75% ethanol was added, and the centrifuge tube was shaken gently, to suspend the pellet.
The sample was centrifuged at 4° C., and 12,000 rpm, for 10 min, the supernatant was discarded, and the sample was air dried at room temperature. The RNA sample was dissolved in 50-100 μL of RNase-free H2O, and the RNA concentration was quantified by determining the OD value.
The sRNA was reversely transcribed into cDNA using a reverse transcription kit (High-Capacity cDNA Reverse Transcription Kits, Applied Biosystems, cat. no. 4368813), following the stem-loop method (see, for example Real-time quantification of microRNAs by stem-loop RT-PCR, Nucleic Acids Res. 2005 Nov. 27; 33(20):e179, incorporated herein by reference). System for reverse transcription: template RNA (200 ng/μL) 10 μL, 10×RT buffer 2.0 μL, 25×dNTP Mix (100 mM) 0.8 μL, U6 RT stem-loop primer 2.0 μL, PGY-sRNA-26 RT stem-loop primer 2.0 μL, MultiScribe™ reverse transcriptase 1.0 μL, RNAase inhibitor 1.0 μL, and nuclease-free water H2O 1.2 μL. […]

[4] = significant difference compared to the control, 100 μg lipid:1 nmol PGY-sRNA-26, 12 hrs

Substance	time at which amount of nucleic acid delivered into the brain tissue reaches a maximum value [1] [h]	time at which amount of nucleic acid delivered into the gastric tissue reaches a maximum value [1] [h]	time at which amount of nucleic acid delivered into the heart tissue reaches a maximum value [1] [h]	time at which amount of nucleic acid delivered into the intestinal tissue reaches a maximum value [1] [h]	time at which amount of nucleic acid delivered into the kidney tissue reaches a maximum value [1] [h]	time at which amount of nucleic acid delivered into the lung tissue reaches a maximum value [1] [h]	time at which amount of nucleic acid delivered into the spleen tissue reaches a maximum value [1] [h]	time at which amount of nucleic acid delivered into the brain tissue reaches a maximum value [2] [h]	time at which amount of nucleic acid delivered into the gastric tissue reaches a maximum value [2] [h]	time at which amount of nucleic acid delivered into the intestinal tissue reaches a maximum value [2] [h]	time at which amount of nucleic acid delivered into the kidney tissue reaches a maximum value [2] [h]	time at which amount of nucleic acid delivered into the spleen tissue reaches a maximum value [2] [h]	oral delivery of sRNA single-chain nucleic acid into the blood, and lung, kidney, spleen, heart, and intestinal tissue of mice [3]	number of organs into which nucleic acid is significantly delivered [3]	oral delivery of sRNA single-stranded nucleic acid into the kidney tissue of mice [3, 4]	oral delivery of sRNA single-stranded nucleic acid into the lung tissue of mice [3, 4]	time at which amount of nucleic acid delivered into the heart tissue reaches a maximum value [2] [h]	time at which amount of nucleic acid delivered into the liver tissue reaches a maximum value [2] [h]	time at which amount of nucleic acid delivered into the lung tissue reaches a maximum value [2] [h]	oral delivery of sRNA single-stranded nucleic acid into the spleen tissue of mice [3, 4]
1-O-octadecyl-2-hydroxy-sn-glycero-3-phosphocholine [Lipid 94]	3	3	3	3	9	9	3	6	3	6	9	6	can effectively orally deliver	two organs	can significantly efficiently orally deliver	can significantly efficiently orally deliver				
1-palmitoyl-2-hydroxy-sn-glycero-3-phosphate (sodium salt) [Lipid 96]				3	3			6		6	3		can effectively orally deliver	two organs	can significantly efficiently orally deliver		9	3	6	can significantly efficiently orally deliver
